Values joined by “and” are separate entries in the source; they are usually repeats but may differ in a detail not shown here. Identical values can stand only once. Counter-ions that a name gives are not always drawn. Like-named read-outs stand apart in the source and are kept apart here.
Key:
[1] = target: T1, beta adrenergic receptor (guinea pig right atria) (Cavia porcellus, UniProt H0W3H1); assay: Beta-blocking activity in vitro, guinea pig right atria (blockade of isoproterenol rate response)
T1 construct: guinea pig right atria and guinea pig tracheal strips mounted in a tissue bath; from tissue; host or cells: guinea pig right atria, spontaneously beating
T1 sequence (H0W3H1 1-470): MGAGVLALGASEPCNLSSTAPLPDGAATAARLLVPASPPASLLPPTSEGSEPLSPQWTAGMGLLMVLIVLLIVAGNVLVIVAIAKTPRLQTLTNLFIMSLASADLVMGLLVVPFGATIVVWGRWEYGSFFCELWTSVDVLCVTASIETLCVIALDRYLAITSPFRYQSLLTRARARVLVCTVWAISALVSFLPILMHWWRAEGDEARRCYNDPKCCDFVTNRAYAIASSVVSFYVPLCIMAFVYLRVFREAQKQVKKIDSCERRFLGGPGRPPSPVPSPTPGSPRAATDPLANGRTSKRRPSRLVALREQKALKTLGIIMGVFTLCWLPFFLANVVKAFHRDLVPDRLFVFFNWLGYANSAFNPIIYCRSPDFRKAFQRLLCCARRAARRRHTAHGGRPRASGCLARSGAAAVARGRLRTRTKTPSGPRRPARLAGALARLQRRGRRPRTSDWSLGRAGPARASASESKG

[2] = tested on: beta adrenergic receptor (heart rate response to isoproterenol); assay: Duration and potency of beta-blocking action in vivo, 3-hour infusion in pentobarbital-anesthetized dogs; design: species or system dog; conditions: for % Inhibition / Time for 50% Rec. / Time for 80% Rec.: Table IV, dose 2.4 / 22.0 ug/kg/min.; for Potency / % I (Percent inhibition of heart rate response to isoproterenol) / Recovery Time 50% / Recovery Time 80%: Table II; for Potency: infusion rate adjusted so isoproterenol inhibition averaged about 50% at end of 3-hour infusion; for % I (Percent inhibition of heart rate response to isoproterenol): isoproterenol 0.5 μg/kg bolus, 3-hour infusion; for Recovery Time 50% / Recovery Time 80%: after termination of 3-hour infusion
Protocol: The duration of β-blockade was determined in vivo using pentobarbital-anesthetized dogs instrumented for measurement of heart rate using a Beckman cardiotachometer triggered electronically by a phasic aortic blood pressure signal. Both vagus nerves were severed in the cervical region and the animals were mechanically ventilated. The experimental design used employed a 3-hour infusion of test compound. Bolus doses of isoproterenol (0.5 μg/kg) were used to assess the degree of β-blockade and recovery from β-blockade after […] of the infusion. The doses were spaced at 10-minute intervals and were given before, during and following the infusion of test compounds. The infusion rate was adjusted so that at the end of the 3-hour infusion period the degree of isoproterenol inhibition averaged about 50% of control. Following termination of blocker infusion, percent recovery from β-blockade was computed and the time associated with 80% recovery estimated.

[3] = Enzymatic hydrolysis of beta blockers by dog blood (procedure C); format: in vitro ADME; conditions: for remaining at 1 h / remaining at 2 h: dog, blood, 37° C.; for remaining at 1 h: read-out: Percent drug remaining, dog blood, 1 HR; for remaining at 2 h: read-out: Percent drug remaining, dog blood, 2 HR
Protocol: (§1) Chemicals--Acetonitrile was "HPLC" grade. Distilled water was used to dissolve the compounds and 0.01N HCl was used to dissolve compounds requiring an acidic pH for dissolution.
(§2) Enzyme Source--Fresh aqueous humor was collected from eyes of dogs using a 23-gauge needle while fresh dog blood was collected into heparinized Vacutainer tubes. Fresh liver was homogenized in 0.9% NaCl using a Potter-Elvehjem Teflon pestle and glass homogenizer making a 25% (W/V) homogenate.
(§3) Incubation Condition--A 0.5 ml aliquot of dog aqueous humor, blood or liver homogenate was incubated with 12.5 μg (0.5 ml) of beta blocker in a Dubnoff shaking metabolic incubator at 37° C. for 60 and 120 min. Denatured tissue controls were prepared by adding 2.0 ml of acetonitrile into 0.5 ml of aqueous humor, blood or liver homogenate to destroy esterase activities prior to addition of the beta blockers. The controls were then incubated at 37° C. for 120 min. After 60 and 120 min, the incubations were terminated by addition of 2 ml of acetonitrile and immediately mixed by a Vortex® to stop esterase activities.
(§4) Sample Processing and Data Analyses--All samples were centrifuged at 4000 RPM for 10 min to sediment denatured proteins. The resultant supernatants were transferred to WISP® vials and analyzed using an HPLC assay developed for beta blockers. The hydrolysis of beta blockers by aqueous humor, blood and liver homogenate was determined by disappearance of the compounds. The extent of enzymatic hydrolysis by each tissue was determined by comparing the amount of each compound (absolute peak area) recovered at each time point to the amount of each compound (absolute peak area) in denatured tissue control and aqueous control samples. The results of these experiments are shown in Tabe III.

[4] = Enzymatic hydrolysis of beta blockers by dog liver homogenate (procedure C); format: in vitro ADME; conditions: for remaining at 1 h / remaining at 2 h: dog, liver homogenate, 37° C.; for remaining at 1 h: read-out: Percent drug remaining, dog liver homogenate, 1 HR; for remaining at 2 h: read-out: Percent drug remaining, dog liver homogenate, 2 HR
Protocol: as §1, §2, §3, §4

[5] = Enzymatic hydrolysis of beta blockers by dog aqueous humor (procedure C); format: in vitro ADME; conditions: for remaining at 1 h / remaining at 2 h: 37° C.; for remaining at 1 h: read-out: Percent drug remaining, dog aqueous humor, 1 HR; for remaining at 2 h: read-out: Percent drug remaining, dog aqueous humor, 2 HR; for half-life: approximate value determined by procedure C, read-out: T1/2 dog aqueous humor
Protocol: as §1, §2, §3, §4

[6] = Half-lives of beta blockers in dog whole blood (procedure D); format: in vitro ADME; conditions: 37° C., read-out: T1/2 dog blood
Protocol: (§5) The rate of disappearance of a compound is expressed as the half-life (T1/2), which is the time period in which one half of the initial amount of compound tested disappears. In each experiment, 1 ml of a solution containing 50 μg of the test compound was added to 1 ml of whole blood or 1 ml of a 33% (w/v) liver homogenate. The samples were incubated in a Dubnoff shaking metabolic incubator for 2.5, 5.0, 10.0, 20.0, 30.0 and 60.0 minutes at 37° C. At the designated time periods, the test mixtures were removed from the incubator and transferred to a 0° C. ice bath. Acetonitrile (2 ml) was immediately added and the mixtures were mixed to stop enzymatic hydrolysis. Zero time samples were prepared by adding 2 ml of acetonitrile to denature the proteins prior to addition of the test compounds. After centrifugation to sediment denatured proteins, 2 ml of the supernatant was removed and analyzed by high pressure liquid chromatography, using a mobile phase of 60% acetonitrile/40% 0.05 m sodium phosphate buffer (pH 6.6), a U.V. detector and Waters u Bondapak Phenyl column. The half life of each test compound was determined graphically by plotting the decrease in concentrations as a function of time.

[7] = Half-lives of beta blockers in dog liver homogenate (procedure D); format: in vitro ADME; conditions: 33% (w/v) homogenate, 37° C., read-out: T1/2 dog liver homogenate
Protocol: as §5

[8] = Table I, guinea pig right atria, isoproterenol agonist, 60-minute incubation, 37° C., read-out: PA2 Rt. Atria (converted)

SMILES: CC(C)(CNC(=O)N1CCOCC1)NCC(O)COC(=O)c1ccco1 (stereo not shown)
- pA2 (atria) ([1]; Table IV): 7.6
- % Inhibition [2]: 40%
- Time for 50% Rec. [2]: 9 min
- Time for 80% Rec. [2]: 30 min

SMILES: CC(C)(CNC(=O)N1CCCCC1)NCC(O)COC(=O)c1ccco1 (stereo not shown)
- Kb ([1]; Table IV, read-out: pA2 (atria) (converted)): 100 nM
- % Inhibition [2]: 59%
- Time for 50% Rec. [2]: 5 min
- Time for 80% Rec. [2]: 17 min

SMILES: CC(C)NC[C@H](O)COc1cccc2ccccc12 (racemic) [Propanolol, reference compound]
- Potency [2]: 0.2 mg/kg/180 min
- % I (Percent inhibition of heart rate response to isoproterenol) [2]: 67 ± 6%

SMILES: CC(C)C(=O)NCCNCC(O)COC(=O)c1ccccc1F (stereo not shown) [Example I, 3-[[2-(Isopropylcarbonylamino)]ethyl]amino-2-hydroxypropyl 2-Fluorobenzoate Hydrochloride]
- Kb [1, 8]: 794 nM

SMILES: CC(C)C(=O)NCC(C)(C)NCC(O)COC(=O)c1ccccc1F (stereo not shown) [Example V, 3-[1,1-Dimethyl-2-(isopropylcarbonylamino)]ethylamino-2-hydroxypropyl 2-Fluorobenzoate Oxalate Monohydrate]
- Kb [1, 8]: 158 nM
- experiments did not recover to 80% within 60 min ([2]; Table II footnote c): 2/6
- Recovery Time 50% [2]: 10 ± 2 min
- Recovery Time 80% [2]: 22 ± 6 min
- Potency [2]: 0.6 mg/kg/180 min
- % I (Percent inhibition of heart rate response to isoproterenol) [2]: 62 ± 5%
- remaining at 1 h [3]: 12%
- remaining at 2 h [3]: 8%
- remaining at 1 h [4]: 0%
- remaining at 2 h [4]: 0%
- remaining at 1 h [5]: 75%
- remaining at 2 h [5]: 49%
- half-life [5]: ~120 min
- half-life [6]: 20 min
- half-life [7]: 3.5 min

SMILES: CC(C)(CNC(=O)C1CCCCC1)NCC(O)COC(=O)c1ccccc1F (stereo not shown) [Example VI, 3-[1,1-Dimethyl-2-(cyclohexylcarbonylamino)]ethylamino-2-hydroxypropyl 2-Fluorobenzoate Oxalate]
- Kb [1, 8]: 20 nM
- Recovery Time 50% [2]: 8 ± 3 min
- Recovery Time 80% [2]: 12 ± 3 min
- Potency [2]: 1.4 mg/kg/180 min
- % I (Percent inhibition of heart rate response to isoproterenol) [2]: 61%

SMILES: CC(C)(CNC(=O)Cc1ccccc1)NCC(O)COC(=O)c1ccccc1F (stereo not shown) [Example VII, 3-[1,1-Dimethyl-2-(benzylcarbonylamino)]ethylamino-2-hydroxypropyl 2-Fluorobenzoate Hydrochloride]
- Kb [1, 8]: 39.8 nM
- Recovery Time 50% [2]: 8 min
- Recovery Time 80% [2]: 19 min
- Potency [2]: 1.8 mg/kg/180 min
- % I (Percent inhibition of heart rate response to isoproterenol) [2]: 68%
- remaining at 1 h [3]: 0%
- remaining at 2 h [3]: 0%
- hydrolysis in dog blood ([3]; within 60 minutes): completely hydrolyzed
- remaining at 1 h [4]: 0%
- remaining at 2 h [4]: 0%
- hydrolysis in liver homogenate ([4]; within 60 minutes): completely hydrolyzed
- remaining at 1 h [5]: 69%
- remaining at 2 h [5]: 46%
- half-life [5]: ~120 min
- metabolised at 1 h ([5]; one hour, read-out: hydrolyzed in aqueous humor after one hour): 31%
- metabolised at 2 h ([5]; two hours, read-out: hydrolyzed in aqueous humor after two hours): 54%
- half-life [6]: 6 min
- half-life [7]: 25 min

SMILES: CNC(=O)NCC(C)(C)NCC(O)COC(=O)c1ccccc1F (stereo not shown) [Example XI, 3-[1,1-Dimethyl-2-(methylaminocarbonylamino)]ethylamino-2-hydroxypropyl 2-Fluorobenzoate Hemioxalate]
- Kb [1, 8]: 316 nM
- Recovery Time 80% [2]: > 60 min
- Potency [2]: 0.2 mg/kg/180 min
- % I (Percent inhibition of heart rate response to isoproterenol) [2]: 81% and 71%

SMILES: CC(C)(CNC(=O)N1CCOCC1)NCC(O)COC(=O)c1ccc(O)c(O)c1 (stereo not shown) [Example XXXV, 3-[2-[1,1-Dimethyl-2-(1-morpholinocarbonylamino)]ethyl]amino-2-hydroxypropyl 3,4-Dihydroxybenzoate Oxalate Monohydrate]
- Kb [1, 8]: 6.31 nM

SMILES: CC(=O)NCC(C)NCC(O)COC(=O)c1ccccc1F (stereo not shown) [III, 3-[1-methyl-2-(methylcarbonylamino)]ethylamino-2-hydroxypropyl 2-Fluorobenzoate]
- Kb [1, 8]: > 501 nM

SMILES: CC(=O)NCC(C)(C)NCC(O)COC(=O)c1ccccc1F (stereo not shown) [IV, 3-[1,1-Dimethyl-2-(methylcarbonylamino)]ethylamino-2-hydroxypropyl 2-Fluorobenzoate]
- Kb [1, 8]: 31.6 nM
- Recovery Time 50% [2]: 7 min
- Recovery Time 80% [2]: 35 min
- Potency [2]: 2.7 mg/kg/180 min
- % I (Percent inhibition of heart rate response to isoproterenol) [2]: 61%
- remaining at 1 h [3]: 0%
- remaining at 2 h [3]: 0%
- remaining at 1 h [4]: 39%
- remaining at 2 h [4]: 23%
- remaining at 1 h [5]: 87%
- remaining at 2 h [5]: 52%
- half-life [5]: ~120 min
- half-life [6]: 7.5 min

SMILES: CC(C)(CNS(=O)(=O)c1ccccc1)NCC(O)COC(=O)c1ccccc1F (stereo not shown) [VIII, 3-[1,1-Dimethyl-2-(phenylsulfonylamino)]ethylamino-2-hydroxypropyl 2-Fluorobenzoate Oxalate]
- Kb [1, 8]: 100 nM
- % I (Percent inhibition of heart rate response to isoproterenol) [2]: 43% and 55%
- remaining at 1 h [3]: 0%
- remaining at 2 h [3]: 0%
- remaining at 1 h [4]: 0%
- remaining at 2 h [4]: 0%
- half-life [6]: 15 min

SMILES: O=C(Cc1ccccc1)NCCNCC(O)COC(=O)c1ccccc1F (stereo not shown) [XIII, 3-[2-(Benzylcarbonylamino)ethyl]amino-2-hydroxypropyl 2-Fluorobenzoate Hydrochloride]
- Kb [1, 8]: > 1000 nM

SMILES: COCCOC(=O)NCC(C)(C)NCC(O)COC(=O)c1ccccc1F (stereo not shown) [XXXI, 3-[1,1-Dimethyl-2-[2-[(2-methoxy)ethoxycarbonylamino]]ethylamino-2-hydroxypropyl 2-Fluorobenzoate Oxalate]
- Kb [1, 8]: 20 nM

SMILES: CN(C)S(=O)(=O)NCC(C)(C)NCC(O)COC(=O)c1ccccc1F (stereo not shown) [XXXII, 3-[1,1-Dimethyl-2-(dimethylaminosulfonylamino)]ethylamino-2-hydroxypropyl 2-Fluorobenzoate Oxalate]
- Kb [1, 8]: 39.8 nM

SMILES: CC(C)(CNC(=O)N1CCOCC1)NCC(O)COC(=O)c1ccccc1 (stereo not shown) [XXXIII, 3-[1,1-Dimethyl-2-(1-morpholinocarbonylamino)]ethylamino-2-hydroxypropyl Benzoate Oxalate Hemihydrate]
- Kb [1, 8]: 5.01 nM

SMILES: CC(C)(CNC(=O)N1CCOCC1)NCC(O)COC(=O)c1ccccc1Cl (stereo not shown) [XXXIV, 3-[1,1-Dimethyl-2-(1-morpholinocarbonylamino)]ethylamino-2-hydroxypropyl 2-Chlorobenzoate Oxalate]
- Kb [1, 8]: 12.6 nM

SMILES: CC(C)(CNC(=O)N1CCOCC1)NCC(O)COC(=O)c1ccc(O)cc1 (stereo not shown) [XXXVI, 3-[1,1-Dimethyl-2-(1-morpholinocarbonylamino)]ethylamino-2-hydroxypropyl 4-Hydroxbenzoate Oxalate]
- Kb [1, 8]: 7.94 nM

SMILES: Cc1cc(O)ccc1C(=O)OCC(O)CNC(C)(C)CNC(=O)N1CCOCC1 (stereo not shown) [XXXVII, 3-[1,1-Dimethyl-2-(1-morpholinocarbonylamino)]ethylamino-2-hydroxypropyl 2-Methyl-4-hydroxybenzoate Oxalate]
- PA2 Rt. Atria ([1]; Table I, guinea pig right atria, isoproterenol agonist, 60-minute incubation, 37° C.): 8.2

Source: patent US4798892A, “2-hydroxypropylamine heteroaryl ester derivatives” (priority 1986, dated 1989)
